Our source for the TGI values is PubChem BioAssay (NCI).

Experiment in all cases: growth of human tumour cells (NCI), 48 h
Experiment [1] relates to U251 CNS.
Experiment [2] relates to SK-MEL-28 melanoma.
Experiment [3] concerns SNB-19 CNS.
In experiment [4] the test system is HS 578T breast.
Experiment [5] has as its system SK-OV-3 ovarian.
Experiment [6] deals with CCRF-CEM leukemia.
Experiment [7] relates to BT-549 breast.
Experiment [8] has as its system MALME-3M melanoma.
For experiment [9], the system named is LOX IMVI melanoma.
The test system of experiment [10] is NCI-H226 lung.
Experiment [11] concerns UACC-257 melanoma.
Experiment [12] relates to SK-MEL-2 melanoma.
The subject of experiment [13] is OVCAR-4 ovarian.
In experiment [14] the test system is K-562 leukemia.

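Cultured in 96-well plates, cells were exposed to test compound for 48 hours across five concentrations. The concentration for full growth arrest is given as TGI.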

Regarding `CCOP(=O)(OCC)/C(C#N)=C/c1cccn1C`, the TGI in experiment [1] was over 100 µM; in [2], over 100 µM; in experiment [3], over 100 µM; in [4], over 100 µM; in experiment [5], over 100 µM; in [6] it was 89 µM. Moreover, the TGI in [7], in [8], in experiment [9], in experiment [10], in [11] and in experiment [12] was over 100 µM in each case. In [13], the TGI was over 100 µM.

As to `CC1=NN(c2ccccc2Cl)C2(C1)C(Cl)C(=O)N2c1nc2ccccc2s1` (stereo unspecified), the TGI in experiment [1] was 76.5 µM; in [3] it was over 100 µM; in experiment [14], over 100 µM; in experiment [4] it was over 100 µM; in [5], over 100 µM; in experiment [7] it was over 100 µM. The TGI was over 100 µM in experiment [8]; 33.7 µM in [9]; over 100 µM in [10]; over 100 µM in experiment [11]; over 100 µM in [12]; over 100 µM in experiment [13].

Turning to `COP(=O)(OC)[C@@](O)(c1ccccc1)[C@@H](O)[C@@H](O)c1ccccc1`, the TGI in experiment [1] was over 100 µM; in [2] it was over 100 µM; in [3] it was over 100 µM; in [4], over 100 µM; in experiment [5], over 100 µM; in experiment [6], 50.9 µM. The TGI in [7] is over 100 µM; in experiment [8] it was over 100 µM; in [9], 37.9 µM; in experiment [10] it was over 100 µM; in [11] it was over 100 µM; in experiment [12], over 100 µM. The TGI in experiment [13] is over 100 µM.

Turning to `CCc1cccc(CC)c1Nc1nc(-c2ccccc2-c2ccccc2)cs1`, the TGI in [1], in experiment [2], in experiment [3], in [14], in [4] and in [5] was over 100 µM each time. Further, the TGI in [6] is over 100 µM; in [7], 84.8 µM; in experiment [8], over 100 µM; in experiment [9] it was over 100 µM; in experiment [11] it was over 100 µM; in experiment [12], over 100 µM. The TGI in experiment [13] was over 100 µM.

For the compound `CC(C)(C)c1cc(C(C)(C)C)c(SSc2c(C(C)(C)C)cc(C(C)(C)C)c(O)c2O)c(O)c1O`, the TGI in [1] is 22.2 µM; in [2], 33.8 µM; in [3] it was 25.5 µM; in experiment [14] it was 26.2 µM; in experiment [4], over 100 µM; in experiment [6], 7.5 µM. The TGI in [7] is 28.3 µM; in experiment [8], 36 µM; in [9] it was 23.6 µM; in [10], 35 µM; in [11] it was 21.7 µM; in [12] it was 28.4 µM. The compound also registered a TGI in [13] of 15.5 µM.

As to `COC(=O)c1c(C)c2c(c(C)c1O)OC(=O)c1c(C)cc(O)c(C=O)c1O2`, the TGI in experiment [1], in experiment [2], in experiment [3], in experiment [14], in [4] and in experiment [5] was over 100 µM throughout. The TGI in [6], in experiment [7], in experiment [8], in [10], in [11] and in experiment [13] was over 100 µM in each case.

For `O=C1CSc2ccnc(=O)n21`, the TGI in experiment [1], in [2], in experiment [3], in experiment [4], in experiment [5] and in experiment [6] was over 100 µM each time. Also, the TGI in experiment [7], in experiment [8], in [11] and in experiment [13] was over 100 µM in each case.

Take `CC(C)(C)C1CC[C@H](O)[C@H]([C@@H](O)CC2CC(=O)N(c3ccccc3)C(=O)C2)C1` (stereo partly specified): the TGI in experiment [1], in experiment [2], in experiment [3], in experiment [14], in experiment [4] and in experiment [6] was over 100 µM each time. Besides, the TGI in experiment [7], in [8], in experiment [9], in [10], in experiment [11] and in experiment [13] was over 100 µM throughout.

Turning to `COc1cnc2oc3ccc(O)cc3c2c1-c1ccccc1`, the TGI in [1], in experiment [2], in [14], in experiment [4], in [5] and in experiment [6] was over 100 µM throughout. The TGI in [7], in experiment [8], in [9], in experiment [11], in [12] and in experiment [13] was over 100 µM each time.

With `CC(Oc1ccc(Cl)cc1Cl)C(=O)NN1C(=O)CC(=O)NC1=S` (stereo unspecified), the TGI in [1], in experiment [2], in [3], in experiment [14], in experiment [4] and in experiment [5] was over 100 µM in each case. For the same compound, the TGI in experiment [7], in experiment [8], in experiment [9], in [10], in [11] and in [12] was over 100 µM each time. In addition, the TGI in experiment [13] is over 100 µM.

Regarding `COc1ccc(C)cc1NC(=S)N/N=C/c1ccco1`, the TGI in [2], in [3], in experiment [14], in experiment [4], in experiment [5] and in experiment [6] was over 100 µM throughout. The TGI was over 100 µM in experiment [7]; over 100 µM in experiment [8]; over 100 µM in experiment [9]; over 100 µM in experiment [10]; over 100 µM in experiment [11]; 39.9 µM in experiment [12]. Also, the TGI in experiment [13] was over 100 µM.
